Publication PMC3214022, “Plasmodium falciparum Parasites Are Killed by a Transition State Analogue of Purine Nucleoside Phosphorylase in a Primate Animal Model” (PLoS ONE, 2011)
Several values for one entry are separate records, joined by “and”; a condition that tells them apart may be missing. Identical values can stand only once.

Assay: Weights, CBC and blood chemistry, Table S1 sheet PD-1 (efficacy study in P. falciparum-infected Aotus)
Type: in vivo, Aotus lemurinus lemurinus
Conditions: IV 10 mg/kg once a day/3 days
Procedure: Laboratory bred Aotus lemurinus lemurinus monkeys (0.75–0.89 kg) were maintained as described. […] Blood samples were collected before the treatment started (t = 0), 0.05 h, 0.5 h, 1 h, 2 h, 6 h, 24 h, 48 h, and 6, 12 and 18 days after the first dose from each monkey and processed as described below. Pharmacokinetic parameters were calculated using PKSolver. For efficacy studies, Aotus monkeys were inoculated intravenously with 5×10^6 parasites of the FVO strain of P. falciparum in an approved treatment protocol. […] Parasitaemia was determined by Giemsa-stained thick blood smears prepared daily from the marginal ear vein [41]. Blood samples were collected from each monkey and transferred to tubes containing lithium heparin, centrifuged and both plasma and blood cells were frozen at −80 °C until analysis. Animals received a physical examination and blood chemistry profiles were monitored after treatment as described previously. Any monkey not responding appropriately to treatment was cured of its infection with mefloquine (40 mg kg^−1). […] The day of clearance is defined as the first of three consecutive days in which the thick blood films are parasite negative. The day of recrudescence is the first of three consecutive days of positive thick blood films after a period of clearance. Suppression is defined as a transient decrease in the parasite count post-treatment without clearance.

## Nc1nc2c(CN3CC(O)C(CO)C3)c[nH]c2c(=O)[nH]1 (centres unmarked) [BCX4945, 4′-deaza-1′-aza-2′-deoxy-1′-(9-methylene)-Immucillin-G]
Day 9, 10 mg/kg
  Blood Urea Nitrogen: 10.65 mg/dL and 14.3 mg/dL and 10.85 mg/dL and 10.75 mg/dL and 11.6 mg/dL and 17.75 mg/dL
  Creatinine: 0.59 mg/dL and 0.587 mg/dL and 0.522 mg/dL and 0.609 mg/dL and 0.7 mg/dL and 0.665 mg/dL
  Erythrocytes: 4.53e+06 µL⁻¹ and 4.52e+06 µL⁻¹ and 3.97e+06 µL⁻¹ and 3.87e+06 µL⁻¹ and 3.32e+06 µL⁻¹ and 5.16e+06 µL⁻¹
  Granulocytes (%): 19.7% and 21.4% and 19.2% and 30% and 21.1% and 36.1%
  Hematocrit: 36.1% and 34.4% and 30.6% and 31.6% and 28.1% and 40.4%
  Hemoglobin: 12 g/dL and 11.8 g/dL and 10.3 g/dL and 10.5 g/dL and 9.3 g/dL and 13.8 g/dL
  Leucocytes: 16700 µL⁻¹ and 22100 µL⁻¹ and 19500 µL⁻¹ and 11100 µL⁻¹ and 19200 µL⁻¹ and 19700 µL⁻¹
  Lymphocytes (%): 65.5% and 44.6% and 64.7% and 56.2% and 66.9% and 50.4%
  Mean Corpuscular Hemoglobin: 26.5 pg and 26.1 pg and 25.9 pg and 27.1 pg and 28.1 pg and 26.7 pg
  Mean Corpuscular Volume: 79.7 fL and 76.1 fL and 77.1 fL and 81.8 fL and 84.7 fL and 78.2 fL
  Mean Hemoglobin Content: 33.3 g/dL and 34.4 g/dL and 33.6 g/dL and 33.2 g/dL and 33.1 g/dL and 34.1 g/dL
  Mean Platelet Volume: 11.9 fL and 15.2 fL and 12.6 fL and 13.1 fL and 13.2 fL and 13.5 fL
  Platelets: 321000 µL⁻¹ and 270000 µL⁻¹ and 322000 µL⁻¹ and 237000 µL⁻¹ and 267000 µL⁻¹ and 336000 µL⁻¹
  Red Cell Distribution Width: 12.8% and 11.8% and 11.5% and 13.6% and 12.1%
  Reticulocytes: 1.7% and 1.2% and 2.3% and 1.8% and 1.3% and 1.9%
  WEIGHT: 780 g and 698 g and 888 g and 790 g and 930 g and 685 g
Day 12, 10 mg/kg
  Creatinine: 0.555 mg/dL and 0.539 mg/dL and <0.500 mg/dL and 0.508 mg/dL and 0.604 mg/dL and 0.605 mg/dL
  Erythrocytes: 4.01e+06 µL⁻¹ and 4.03e+06 µL⁻¹ and 3.46e+06 µL⁻¹ and 5.43e+06 µL⁻¹ and 2.96e+06 µL⁻¹ and 4.66e+06 µL⁻¹
  Glutamate Pyruvate Transaminase: 41.8 U/L and 40.8 U/L and 52.6 U/L and 38.7 U/L and 64.9 U/L and 39.6 U/L
  Hematocrit: 31.6% and 31.2% and 27.1% and 43.9% and 26.3% and 36.3%
  Hemoglobin: 10.9 g/dL and 10.7 g/dL and 9.2 g/dL and 14.9 g/dL and 8.6 g/dL and 12.7 g/dL
  Leucocytes: 36300 µL⁻¹ and 31000 µL⁻¹ and 41200 µL⁻¹ and 29300 µL⁻¹ and 42600 µL⁻¹ and 45600 µL⁻¹
  Lymphocytes (%): 72.6% and 57.1% and 73% and 56% and 73.9% and 60.8%
  Lymphocytes (x 103/ul): 26.4 x 103/ul and 17.7 x 103/ul and 30.1 x 103/ul and 16.4 x 103/ul and 31.5 x 103/ul and 27.7 x 103/ul
  Mean Corpuscular Hemoglobin: 27.2 pg and 26.5 pg and 27.5 pg and 29 pg and 27.4 pg
  Mean Corpuscular Volume: 78.8 fL and 77.3 fL and 78.4 fL and 80.9 fL and 88.8 fL and 78 fL
  Mean Hemoglobin Content: 34.5 g/dL and 34.3 g/dL and 33.8 g/dL and 34.1 g/dL and 32.7 g/dL and 35.1 g/dL
  Mean Platelet Volume: 17.3 fL and 13.7 fL and 12.9 fL and 18.2 fL and 11.1 fL
  Monocytes (x 103/ul): 3.5 x 103/ul and 4.3 x 103/ul and 6 x 103/ul and 4.1 x 103/ul
  Red Cell Distribution Width: 13.5% and 12.4% and 12.7% and 11.4% and 14.8% and 12.2%
  Reticulocytes: 1.7% and 2.1% and 2.5% and 2.6% and 1.3%
  WEIGHT: 766 g and 680 g and 832 g and 849 g and 684 g
Day 19, 10 mg/kg
  Blood Urea Nitrogen: 19.25 mg/dL and <10.0 mg/dL and 15.3 mg/dL and 13.8 mg/dL and 15.4 mg/dL and 13.5 mg/dL
  Creatinine: 0.514 mg/dL and <0.500 mg/dL and 0.504 mg/dL and 0.562 mg/dL and 0.507 mg/dL
  Erythrocytes: 4.88e+06 µL⁻¹ and 4.44e+06 µL⁻¹ and 4.27e+06 µL⁻¹ and 4e+06 µL⁻¹ and 4.12e+06 µL⁻¹ and 5.22e+06 µL⁻¹
  Glutamate Pyruvate Transaminase: 29 U/L and 20.1 U/L and 31.3 U/L and 23.9 U/L and 26.3 U/L and 21.8 U/L
  Hemoglobin: 14.2 g/dL and 11.9 g/dL and 11.8 g/dL and 12.5 g/dL
  Leucocytes: 30100 µL⁻¹ and 23700 µL⁻¹ and 16700 µL⁻¹ and 22900 µL⁻¹ and 19600 µL⁻¹ and 17100 µL⁻¹
  Lymphocytes (%): 87.7% and 48.9% and 76.9% and 73.7% and 77.1% and 48.7%
  Mean Corpuscular Hemoglobin: 29 pg and 26.8 pg and 27.5 pg and 29.7 pg and 30.3 pg and 27.1 pg
  Mean Corpuscular Volume: 87.8 fL and 79.1 fL and 84.9 fL and 91.2 fL and 93.4 fL and 81.3 fL
  Mean Hemoglobin Content: 33.1 g/dL and 33.9 g/dL and 32.4 g/dL and 32.6 g/dL and 32.5 g/dL and 33.4 g/dL
  Mean Platelet Volume: 15.6 fL and 12.8 fL and 12.3 fL and 14.4 fL and 14.8 fL and 13.8 fL
  Monocytes (%): 5.6% and 6.4% and 11.4% and 6.6%
  Red Cell Distribution Width: 23.9% and 15.2% and 21.7% and 23.4% and 22.5% and 17.2%
  Reticulocytes: 1.5% and 2% and 2.3% and 2.2%
  WEIGHT: 777 g and 684 g and 852 g and 754 g and 875 g and 690 g
Day 25, 10 mg/kg
  Blood Urea Nitrogen: 27.95 mg/dL and 24.85 mg/dL and 23.3 mg/dL and 19.35 mg/dL and 20.25 mg/dL
  Creatinine: <0.500 mg/dL and 0.563 mg/dL and 0.659 mg/dL and 0.585 mg/dL
  Erythrocytes: 4.42e+06 µL⁻¹ and 5.34e+06 µL⁻¹ and 5.57e+06 µL⁻¹ and 4.57e+06 µL⁻¹ and 4.75e+06 µL⁻¹
  Glutamate Pyruvate Transaminase: 21.7 U/L and 23.8 U/L and 25 U/L and 26.2 U/L
  Hematocrit: 35.7% and 44.6% and 40.2% and 42.6%
  Hemoglobin: 12.1 g/dL and 15.2 g/dL and 15.3 g/dL and 13.4 g/dL and 14.4 g/dL
  Leucocytes: 11500 µL⁻¹ and 12400 µL⁻¹ and 15400 µL⁻¹ and 12700 µL⁻¹ and 10500 µL⁻¹
  Lymphocytes (%): 72.6% and 81.9% and 63.9% and 71.1% and 64.3%
  Lymphocytes (x 103/ul): 8.3 x 103/ul and 10.2 x 103/ul and 9.8 x 103/ul and 9 x 103/ul and 6.8 x 103/ul
  Mean Corpuscular Hemoglobin: 27.3 pg and 28.5 pg and 27.5 pg and 29.3 pg and 30.2 pg
  Mean Corpuscular Volume: 80.8 fL and 83.6 fL and 80.1 fL and 88.1 fL and 89.5 fL
  Mean Hemoglobin Content: 33.8 g/dL and 34.1 g/dL and 34.3 g/dL and 33.2 g/dL and 33.7 g/dL
  Mean Platelet Volume: 12 fL and 13 fL and 11 fL
  Monocytes (%): 11.3% and 6.2% and 5.7% and 7.9% and 8.2%
  Monocytes (x 103/ul): 1.3 x 103/ul and 0.8 x 103/ul and 0.9 x 103/ul and 1 x 103/ul
  Platelets: 342000 µL⁻¹ and 291000 µL⁻¹ and 454000 µL⁻¹ and 397000 µL⁻¹ and 336000 µL⁻¹
  Red Cell Distribution Width: 16.7% and 18.3% and 15.7% and 19.1% and 17.5%
  Reticulocytes: 2.1% and 1.8% and 1.7% and 2.6% and 2.4%
  WEIGHT: 825 g and 760 g and 690 g and 687 g
Day 26
  Blood Urea Nitrogen: 16.65 mg/dL
  Creatinine: 0.537 mg/dL
  Erythrocytes: 4.54e+06 µL⁻¹
  Glutamate Pyruvate Transaminase: 18.2 U/L
  Granulocytes (%): 46.7%
  Granulocytes (x 103/ul): 7.7 x 103/ul
  Hematocrit: 35.9%
  Hemoglobin: 12 g/dL
  Leucocytes: 16500 µL⁻¹
  Lymphocytes (%): 45.8%
  Lymphocytes (x 103/ul): 7.6 x 103/ul
  Mean Corpuscular Hemoglobin: 26.3 pg
  Mean Corpuscular Volume: 78.9 fL
  Mean Hemoglobin Content: 33.4 g/dL
  Mean Platelet Volume: 12.5 fL
  Monocytes (%): 7.5%
  Monocytes (x 103/ul): 1.2 x 103/ul
  Platelets: 314000 µL⁻¹
  Red Cell Distribution Width: 16.2%
  Reticulocytes: 1.9%
  WEIGHT: 910 g
Day -2, 10 mg/kg
  Creatinine: 0.623 mg/dL and 0.539 mg/dL and 0.583 mg/dL and 0.677 mg/dL and 0.579 mg/dL and 0.564 mg/dL
  Erythrocytes: 6.51e+06 µL⁻¹ and 6.11e+06 µL⁻¹ and 6.26e+06 µL⁻¹ and 5.03e+06 µL⁻¹ and 5.52e+06 µL⁻¹ and 5.2e+06 µL⁻¹
  Hematocrit: 50% and 47.6% and 40.6% and 44.3% and 42.4%
  Hemoglobin: 17.2 g/dL and 16.6 g/dL and 16.4 g/dL and 14.2 g/dL and 15.2 g/dL
  Leucocytes: 18500 µL⁻¹ and 15700 µL⁻¹ and 15900 µL⁻¹ and 16400 µL⁻¹ and 10600 µL⁻¹ and 21000 µL⁻¹
  Mean Corpuscular Hemoglobin: 26.4 pg and 27.2 pg and 26.3 pg and 28.2 pg and 27.5 pg and 33.1 pg
  Mean Corpuscular Volume: 76.8 fL and 78 fL and 76.1 fL and 80.7 fL and 80.2 fL and 81.5 fL
  Mean Hemoglobin Content: 34.4 g/dL and 34.9 g/dL and 34.5 g/dL and 34.3 g/dL and 40.6 g/dL
